From PubChem BioAssay AID449764 (Southern Research Specialized Biocontainment Screening …, 2010) come the findings set out here.

In general, pIC50 refers to the IC50 on a negative log10 scale, so that one unit is a factor of ten. In general, IC90 refers to the concentration at which the effect reaches the 90% level. A lower IC90 goes with greater potency.

The experiment relates to Mycobacterium tuberculosis H37Rv growth inhibition, no glycerol. Briefly: Mycobacterium tuberculosis H37Rv growth inhibition, no glycerol, confirmatory dose response (AID 449764).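 As to all read-outs here: growth read after 7 days of incubation.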 Particulars: for IC90: measured here: IC90 growth inhibition.

pIC50: −log10 of the molar value. Some results are limits rather than exact numbers.

For `CCOC(=O)CNC(=S)n1cnc(N)n1`, the pIC50 was 4.34 and the 90% effect concentration (IC90) was above 100 µM. The matching figures for `c1ccc2c(c1)CCN(c1nc3cc4c(cc3s1)OCCO4)C2`: 4.46 and 55 µM. Regarding `Cc1ccc(S(=O)(=O)NC(CC(C)C)C(=O)N2CCN(C/C=C/c3ccccc3)CC2)cc1` (stereo not drawn), the pIC50 is 4.18 and the IC90 worked out at 90.2 µM. The matching figures for `C/C(=N\Nc1ccc(S(=O)(=O)N2CCCCC2)cn1)c1cccc(Br)c1`: 4.41 and above 100 µM.

Consider `CNC(=S)/N=C/NOCc1c(Cl)cccc1Cl`, for which the pIC50 was 5.53 and the IC90 came out at 3.35 µM.

With `C#C[C@]1(O)CC[C@H]2[C@@H]3CCc4cc(OC5CCCC5)ccc4[C@H]3CC[C@@]21C`, the pIC50 was 4.44 and the IC90 was 54.7 µM. The matching figures for `CN1C(=O)N(C)c2ccc(C=O)c3cccc1c23`: 4.34 and 51.4 µM.

Take `O=C(CSc1cccc[n+]1[O-])c1cccs1`: the pIC50 is 4.46 and the IC90 is 42.2 µM. The like results for `CCOc1ccc(N2C=Nc3ccc(OCC)cc3C2)cc1` were, in that order, 4.10 and above 100 µM.

As for `O=C(OCc1ccccc1)/C(=C(\O)c1ccccc1Br)c1ccc(-c2ccccc2)cn1`, the pIC50 is 4.45 and the IC90 came to 49.3 µM.

As for `COc1cccc(C2C3=C(N=c4s/c(=C\c5cccc(O)c5)c(=O)n42)c2ccccc2CC3)c1OC` (stereo not drawn), the pIC50 was 4.64 and the IC90 worked out at 25.6 µM. Consider `COc1cccc(-c2nnc(NC(=O)c3ccc(S(=O)(=O)N4CCOCC4)cc3)o2)c1`, for which the pIC50 was 4.49 and the 90% effect concentration (IC90) was found to be 46 µM. `Cc1ccnc(NC(=O)c2cc3ccccc3o2)c1` gave a 90% effect concentration (IC90) above 50 µM. For the molecule `Cc1cc(-c2ccc(Cl)cc2)c2cnn(C(C)C)c2n1`, the pIC50 was 4.41 and the IC90 came out at 58.1 µM.

`O=C1Nc2ccc(Br)cc2C12NNc1ccccc1O2` (stereo not drawn): the pIC50 was 4.36 and the IC90 came out at 62.9 µM. The matching figures for `C=CCOC(=O)COc1ccc2c(C)c(CC)c(=O)oc2c1`: 5.83 and 1.68 µM.

Turning to `COC(=O)CSc1nnc([C@H](CC(C)C)NC(=O)OC(C)(C)C)o1`, the pIC50 is 4.66 and the IC90 came out at 29.9 µM. The matching figures for `N=c1oc2cc(O)ccc2cc1C(=O)Nc1ccc(Br)cc1`: 5.76 and 3.96 µM.

On to `C=CCn1cccc(/C=C/C(=O)c2ccc(C(C)(C)C)cc2)c1=S`, for which the negative-log IC50 (pIC50) is 4.17 and the concentration for an effect of 90% (IC90) turned out to be 86.8 µM.

With `CCn1c(NC(=O)c2nn(C)cc2Br)nc2ccccc21`, the pIC50 was 5.02 and the concentration for an effect of 90% (IC90) was determined as 16.8 µM. The like results for `CCCCn1nc(C(=O)N[C@@H](CCSC)c2nc3ccccc3[nH]2)c2ccccc2c1=O` were, in that order, 4.33 and above 100 µM. The matching figures for `CCOc1cc(C=O)cc(N=Nc2cccc([N+](=O)[O-])c2)c1O`: 5.08 and 13.5 µM. In the case of `Fc1nc(F)c(F)c(NCCCNc2c(F)c(F)nc(F)c2F)c1F`, the IC90 was above 100 µM. For `Cc1[nH]c2ccccc2c1/C=N/Nc1nc(Nc2ccccc2)nc(N2CCOCC2)n1`, the pIC50 is 5.18 and the IC90 stood at 13.6 µM. The matching figures for `CCOC(=O)CSc1ccc(C(=O)Nc2ccc(OC)cc2)cn1`: 6.34 and above 100 µM. The matching figures for `CCOC(=O)C1CCN(c2cc3c(cc2NC(=O)c2ccccc2Cl)n(C)c(=O)n3C)CC1`: 4.35 and 51.2 µM.

Consider `CC(C)(C)c1ccc(OCCC(=O)OCC(=O)NC(=O)NC2CCCC2)cc1`, for which the pIC50 was 4.93 and the concentration for an effect of 90% (IC90) is 18.9 µM. Consider `Cc1c([N+](=O)[O-])cnc(Sc2ccccc2)c1[N+](=O)[O-]`, for which the pIC50 is 5.24 and the IC90 is 9.94 µM. The matching figures for `CCOC(=O)[C@@H]1[C@H]2COc3cc(OC)ccc3[C@H]2N2C(=O)N(c3ccc(C(F)(F)F)cc3)C(=O)[C@]12C`: 5.24 and 6.27 µM. For `O=C(C1CCCN(c2ncnc3c2nc2n3CCCCC2)C1)N1CCN(c2ccc(Cl)cc2)CC1` (stereo not drawn), the pIC50 is 4.42 and the IC90 worked out at 51 µM. As for `O=C1NCC(c2ccccc2)C1C(=O)N/N=C\c1ccc(-c2ccc(Cl)c(Cl)c2)o1` (stereo not drawn), the 90% effect concentration (IC90) is above 100 µM. As for `CCCCCCC[N+](CC)(CC)CCCCc1ccc(Cl)cc1`, the pIC50 was 4.43 and the IC90 amounted to 49.8 µM. The matching figures for `Cc1ccccc1CSc1nsc(N)n1`: 5.04 and 24.1 µM. The like results for `O=C(C[n+]1ccc(C(=O)N/N=C/c2ccc(O)cc2)cc1)c1ccccc1` were, in that order, 5.02 and above 100 µM.

`COc1ccc(Cc2nc3ccc(C(=O)NCCCSC)cc3o2)cc1OC`: the pIC50 was 4.37 and the concentration for an effect of 90% (IC90) is 65.2 µM. The like results for `Cc1cc(C)n2nc(N)c(N=Nc3ccccc3)c2n1` were, in that order, 5.59 and 3.46 µM.

With `Cc1nc2ccccc2c2nc3ccccc3n12`, the pIC50 is 4.51 and the IC90 is 48.4 µM. The matching figures for `Cn1nc(-c2ccccc2F)c2cc(C(=O)Nc3ccc4c(c3)OCCO4)sc21`: 4.38 and above 100 µM. The like results for `C/C(=N\NC(N)=S)c1ccc(Cl)s1` were, in that order, 4.93 and 23.4 µM. For `CCCn1nnnc1NC(=O)c1ccc(C)cc1Cl`, the pIC50 was 4.79 and the IC90 came out at 33.1 µM. `CN(C)CCNc1ncnc2c1sc1nc(-c3ccccc3)c3c(c12)CCCC3`: the pIC50 is 4.65 and the IC90 is 24.2 µM. The matching figures for `NCCCn1c(C(=O)c2ccc(Cl)cc2)c2ccc([N+](=O)[O-])cc2[n+]1[O-]`: 4.47 and 44.2 µM. The matching figures for `Nc1ccc2cc(Br)ccc2c1`: 4.27 and 81.6 µM. The matching figures for `COc1ccc(C(=O)/C=C/Sc2nc3ccccc3o2)cc1`: 4.04 and above 100 µM.

For the molecule `CCCCCCCCn1c2c(c(=N)c3c1CCC3)CCCC2`, the pIC50 is 4.65 and the IC90 stood at 25.8 µM. The matching figures for `Cc1nn(-c2ccccc2)c2c1C(c1ccc([N+](=O)[O-])cc1)N1C(=N2)C(=O)Nc2ccccc21` (stereo not drawn): 4.26 and above 100 µM. Consider `COc1ccc(C(CC(=O)c2ccccc2)S(=O)(=O)c2ccc(C)cc2)cc1` (stereo not drawn), for which the pIC50 was 4.25 and the IC90 was found to be 92.2 µM. The like results for `CCc1ccc2nc(N(CCCN(C)C)C(=O)c3ccc(S(=O)(=O)N4CCCc5ccccc54)cc3)sc2c1` were, in that order, 4.46 and 41 µM. The like results for `Cc1ccc(N2C(=O)C(F)(F)C2c2ccccc2)cc1` (stereo not drawn) were, in that order, 5.34 and 7.9 µM. As to `Nc1c2c(nc3ccn(Cc4ccccc4)c(=O)c13)CCC2`, the pIC50 was 5.01 and the IC90 worked out at 15.9 µM. The like results for `O=c1c(C=Nc2ccc(Oc3ccccc3)cc2)c[nH]n1-c1cccc(Cl)n1` were, in that order, 4.63 and above 100 µM. The matching figures for `O=C(CCl)Nc1nccs1`: 5.31 and 9.14 µM. The like results for `Cn1cnc([N+](=O)[O-])c1Sc1ccc(Br)cc1` were, in that order, 4.71 and 26.1 µM. On to `Nc1nnnn1/N=C/C(Br)=C/c1ccccc1`, for which the pIC50 was 5.25 and the IC90 was 10.9 µM. The matching figures for `COc1ccc(-c2oc3cccnc3c2/C=C/c2ccc(OC)c(OC)c2)cc1`: 4.25 and above 100 µM. The like results for `COCc1nnc(NC(=O)C2CC(=O)N(c3ccc(C)c(Cl)c3)C2)s1` (stereo not drawn) were, in that order, 4.12 and above 100 µM. The matching figures for `CC12CCC(=O)N1C(C(=O)Nc1ccc(SC(F)F)cc1)CS2` (stereo not drawn): 4.32 and above 100 µM.

As to `CCCC1CC(C)(c2csc(Nc3ccc(OCC)cc3)n2)OC1=O` (stereo not drawn), the pIC50 is 4.45 and the IC90 worked out at 44.9 µM.

In the case of `Cc1ccc(C(=O)c2oc3ccc(Cl)cc3c2NC(=O)CN2CCN(C)CC2)cc1`, the pIC50 was 4.83 and the IC90 amounted to 19.6 µM. The like results for `CCc1ccc(NC(=S)/N=C(\N)Nc2nc(C)c3cc(CC)ccc3n2)cc1` were, in that order, 4.96 and 21.1 µM.

In the case of `COc1nn(-c2ccccc2)c(=O)c(Cl)c1Cl`, the pIC50 is 4.99 and the IC90 was 13.6 µM. Take `CN(C)c1ccc(O)c2c1CC1CC3[C@@H](N(C)C)C(=O)C(C(N)=O)C(=O)[C@]3(O)C(=O)C1C2=O` (stereo partly drawn): the pIC50 was 5.71 and the IC90 came out at 3.99 µM. The matching figures for `Cc1ccc(-n2nc(C)c3c(C)c(CCC(=O)Nc4ccc(CN5CCCC5)cc4)c(C)nc32)cc1`: 4.80 and 22.1 µM. The matching figures for `CCCCNc1c(-c2ccc(SC3CCCCC3)c(OC)c2)nc2ccc(C)cn12`: 4.93 and 13.5 µM. The like results for `Cc1ccc2ccc3ccc(C)nc3c2n1` were, in that order, 5.85 and 2.11 µM. `Cc1ccc(NC(=O)COc2ccc(-n3ccnc3)cc2)cc1Cl`: the pIC50 was 4.35 and the 90% effect concentration (IC90) stood at 58.7 µM. As to `Cc1ccnc(N2CCC(C(=O)Nc3cccc(C(F)(F)F)c3)CC2)n1`, the pIC50 is 4.33 and the IC90 is above 50 µM. The matching figures for `Cc1cc(-c2n[nH]c(=S)n2/N=C/C(Br)=C/c2ccccc2)n[nH]1`: 5.26 and 8.35 µM. For `CN1C(=O)/C(=C/c2ccccc2Cl)Sc2ccc(C(=O)NCc3cccnc3)cc21`, the pIC50 was 4.30 and the IC90 worked out at 89.8 µM. The like results for `O=C(Nc1cc(C(F)(F)F)ccc1-n1cncn1)c1ccc([N+](=O)[O-])o1` were, in that order, 4.43 and 54.2 µM. Consider `N#CC(C#N)=C(N)CSc1cccc[n+]1[O-]`, for which the pIC50 was 4.36 and the IC90 is 49 µM.

Take `Nc1nonc1C(=O)NCCNCc1c(OCc2ccccc2F)ccc2ccccc12`: the pIC50 was 4.40 and the IC90 is 54.4 µM.

For the molecule `CCN1CCN(CCCNC(=O)c2ccc(/C=C3/Oc4ccccc4N(Cc4cccc(C)c4)C3=O)cc2)CC1`, the pIC50 was 4.35 and the 90% effect concentration (IC90) was found to be 48.1 µM.
